# Tested on: AR
# Test: not given
# Details: read-out: IC50 (reported AR inhibition); Zopolrestat; cited from earlier work
row,SMILES,IC50 [nM]
1,"O=C(O)Cc1nn(Cc2nc3cc(C(F)(F)F)ccc3s2)c(=O)c2ccccc12 [Zopolrestat, 3,4-dihydro-4-oxo-3-[[5-(trifluoromethyl)-2-benzothiazolyl]methyl]-1-phthalazineacetic acid]",3.1

# Target: T1, aldose reductase (Homo sapiens, UniProt P15121)
# Test: not given
# Details: at 0.5 IC50
effect on Km,effect on Vmax,SMILES
slight reduction,significant reduction,"O=C1S/C(=C\c2ccc(Cl)cc2)C(=O)N1Cc1nc2ccccc2s1 [Compound 8b, (Z)-3-(benzo[d]thiazol-2-ylmethyl)-5-(4-chlorobenzylidene)thiazolidine-2,4-dione]"

# Same assay, conditions: at concentrations equal to IC50 and double of IC50
row,effect on Km and Vmax,SMILES
1,decreased significantly,"O=C1S/C(=C\c2ccc(Cl)cc2)C(=O)N1Cc1nc2ccccc2s1 [Compound 8b, (Z)-3-(benzo[d]thiazol-2-ylmethyl)-5-(4-chlorobenzylidene)thiazolidine-2,4-dione]"

# Target: T1, aldose reductase
# Test: In vitro enzyme inhibitory assay against human aldose reductase
# Format: biochemical
# Details: AR inhibition, Epalrestat as positive control
row,IC50 [nM],SMILES
1,330,"O=C1S/C(=C\c2ccc(F)cc2)C(=O)N1Cc1nc2ccccc2s1 [Compound 8d, (Z)-3-(benzo[d]thiazol-2-ylmethyl)-5-(4-fluorobenzylidene)thiazolidine-2,4-dione]"
2,160,"O=C1S/C(=C\c2ccc(Cl)cc2)C(=O)N1Cc1nc2ccccc2s1 [Compound 8b, (Z)-3-(benzo[d]thiazol-2-ylmethyl)-5-(4-chlorobenzylidene)thiazolidine-2,4-dione]"
3,290,"Cc1ccc(/C=C2\SC(=O)N(Cc3nc4ccccc4s3)C2=O)cc1 [Compound 8e, (Z)-3-(benzo[d]thiazol-2-ylmethyl)-5-(4-methylbenzylidene)thiazolidine-2,4-dione]"
4,450,"COc1ccc(/C=C2\SC(=O)N(Cc3nc4ccccc4s3)C2=O)cc1OC [Compound 8h, (Z)-3-(benzo[d]thiazol-2-ylmethyl)-5-(3,4-dimethoxybenzylidene)thiazolidine-2,4-dione]"
5,1980,"O=C1S/C(=C\c2ccc([N+](=O)[O-])cc2)C(=O)N1Cc1nc2ccccc2s1 [Compound 8a, (Z)-3-(benzo[d]thiazol-2-ylmethyl)-5-(4-nitrobenzylidene)thiazolidine-2,4-dione]"
6,210,"O=C1S/C(=C\c2ccc(Br)cc2)C(=O)N1Cc1nc2ccccc2s1 [Compound 8c, (Z)-3-(benzo[d]thiazol-2-ylmethyl)-5-(4-bromobenzylidene)thiazolidine-2,4-dione]"
7,270,"COc1cc(/C=C2\SC(=O)N(Cc3nc4ccccc4s3)C2=O)cc(OC)c1OC [Compound 8g, (Z)-3-(benzo[d]thiazol-2-ylmethyl)-5-(3,4,5-trimethoxybenzylidene)thiazolidine-2,4-dione]"
8,940,"COc1ccc(/C=C2\SC(=O)N(Cc3nc4ccccc4s3)C2=O)cc1 [Compound 8f, (Z)-3-(benzo[d]thiazol-2-ylmethyl)-5-(4-methoxybenzylidene)thiazolidine-2,4-dione]"

# The remaining lines, values behind:
row,SMILES,IC50 [nM]
1,"O=C(CN1C(=O)S/C(=C\c2cccc([N+](=O)[O-])c2)C1=O)c1ccc([N+](=O)[O-])cc1 [Compound 5h, (Z)-5-(3-nitrobenzylidene)-3-(2-(4-nitrophenyl)-2-oxoethyl)thiazolidine-2,4-dione]",510
2,"O=C(CN1C(=O)S/C(=C\c2ccc(Br)cc2)C1=O)c1ccc([N+](=O)[O-])cc1 [Compound 5c, (Z)-5-(4-bromobenzylidene)-3-(2-(4-nitrophenyl)-2-oxoethyl)thiazolidine-2,4-dione]",490
3,"Cc1ccc(/C=C2\SC(=O)N(CC(=O)c3ccc([N+](=O)[O-])cc3)C2=O)cc1 [Compound 5e, (Z)-5-(4-methylbenzylidene)-3-(2-(4-nitrophenyl)-2-oxoethyl)thiazolidine-2,4-dione]",550
4,"O=C(CN1C(=O)S/C(=C\c2ccc([N+](=O)[O-])cc2)C1=O)c1ccc([N+](=O)[O-])cc1 [Compound 5a, (Z)-5-(4-nitrobenzylidene)-3-(2-(4-nitrophenyl)-2-oxoethyl)thiazolidine-2,4-dione]",220
5,"COc1ccc(/C=C2\SC(=O)N(CC(=O)c3ccc([N+](=O)[O-])cc3)C2=O)cc1 [Compound 5f, (Z)-5-(4-methoxybenzylidene)-3-(2-(4-nitrophenyl)-2-oxoethyl)thiazolidine-2,4-dione]",280
6,"COc1cc(/C=C2\SC(=O)N(CC(=O)c3ccc([N+](=O)[O-])cc3)C2=O)cc(OC)c1OC [Compound 5g, (Z)-3-(2-(4-nitrophenyl)-2-oxoethyl)-5-(3,4,5-trimethoxybenzylidene)thiazolidine-2,4-dione]",720
7,"O=C(CN1C(=O)S/C(=C\c2ccc(Cl)cc2)C1=O)c1ccc([N+](=O)[O-])cc1 [Compound 5b, (Z)-5-(4-chlorobenzylidene)-3-(2-(4-nitrophenyl)-2-oxoethyl)thiazolidine-2,4-dione]",460
8,"O=C(CN1C(=O)S/C(=C\c2ccc(F)cc2)C1=O)c1ccc([N+](=O)[O-])cc1 [Compound 5d, (Z)-5-(4-fluorobenzylidene)-3-(2-(4-nitrophenyl)-2-oxoethyl)thiazolidine-2,4-dione]",570
9,"O=C(CN1C(=O)S/C(=C\c2cccc(Br)c2)C1=O)c1ccc([N+](=O)[O-])cc1 [Compound 5k, (Z)-5-(3-bromobenzylidene)-3-(2-(4-nitrophenyl)-2-oxoethyl)thiazolidine-2,4-dione]",410

# Reference: paper PMC10361003 (Journal of Enzyme Inhibition and Medicinal Chemistry, 2023)
